Measured values reported in patent US8278459B2, “UV-filter compounds” (DSM IP Assets B.V., priority 2007, dated 2012).

Assay: Skin binding experiment (pig ear skin, THF extraction, HPLC recovery)
Assay type: in vitro ADME
Conditions: for % UV filter bound to the skin: 2% (w) THF solution applied topically at 1 mg/cm^2, 32±1° C., duplicates
Procedure: The skin binding properties were determined by the following experiment. Skin samples (1 cm^2 each) were prepared by punching out from pig ear. The skin samples were placed in a 2 mL eppendorf plastic tube. The studied compounds were applied topically as a 2% (w) THF solution on the skin surface at a mean dose rate of 1 mg/cm^2. The samples were placed in a heatingblock and maintained at a normal skin temperature of 32±1° C. for the duration of the exposure period. At the end of the experiment, after 24 hours, respectively 72 h, each skin probe was extracted by shaking with 1000 μl of THF for 1 min and the resulting solution was analyzed by HPLC. The experiments were run in duplicates.
Compounds B and was tested for their skin-binding capacity, while compound A (described in Kawashita, Y; Nakamichi, N.; Kawabata, H.; Hayashi, M. Org. Lett. 2003, 5, 3713-3715) was used as a non-binding reference.
Skin fraction samples were injected into the HPLC system using DAD detection with the following conditions:
The % of UV filter bound to the skin was determined by calculation of the recovery rate using the following equation: […]

Row | % UV filter bound to the skin (After 24 h) [%] | % UV filter bound to the skin (After 72 h) [%] | adhesion to the skin (in words) (compared to the non-binding compound A) | SMILES
1 | 36.3 | 61.1 |  | Cc1ccc(-c2nc3ccccc3o2)cc1 [Compound A, reference compound]
2 | 96.6 | 100 | significant adhesion to the skin | O=C(CO)C(O)C(O)c1ccc(-c2nc3ccccc3o2)cc1 (centres unmarked) [Compound B, 4-(4-Benzoxazol-2-yl-phenyl)-1,3,4-trihydroxy-butan-2-one]
